Assay results published in paper PMC3914206.

Legend:
Type in all cases: binding
Set-up in all cases: KINOMEscan: ABL1(F317L)-phosphorylated / KINOMEscan: ABL1(H396P)-nonphosphorylated / KINOMEscan: ABL1(H396P)-phosphorylated / KINOMEscan: ABL1(M351T)-phosphorylated / KINOMEscan: ABL1(T315I)-phosphorylated / KINOMEscan: ABL1-nonphosphorylated / KINOMEscan: ABL1-phosphorylated / KINOMEscan: ACVR2A / KINOMEscan: ACVR2B / KINOMEscan: ADCK3 / KINOMEscan: ADCK4 / KINOMEscan: AKT1 / KINOMEscan: AKT3 / KINOMEscan: ALK / KINOMEscan: ARK5 / KINOMEscan: AURKA / KINOMEscan: AURKC / KINOMEscan: BIKE / KINOMEscan: BMPR1A / KINOMEscan: BMPR1B / KINOMEscan: BMX / KINOMEscan: BRK / KINOMEscan: BRSK1 / KINOMEscan: BRSK2 / KINOMEscan: CAMK1 / KINOMEscan: CAMK1D / KINOMEscan: CAMK1G / KINOMEscan: CAMK2A / KINOMEscan: CAMK2B / KINOMEscan: AAK1 / KINOMEscan: CAMK2D / KINOMEscan: CAMK2G / KINOMEscan: ABL1(F317I)-nonphosphorylated / KINOMEscan: ABL1(F317I)-phosphorylated / KINOMEscan: ABL1(F317L)-nonphosphorylated: unit: % Ctrl
Details in all cases: Compound Concentration 10 µM
panel of 442 kinases [1] = biological target: T1, panel of 442 kinases (Homo sapiens, UniProt P00519, F317I)
T1 construct: purchased KINOMEscan
T1 sequence (P00519 whole entry F317I): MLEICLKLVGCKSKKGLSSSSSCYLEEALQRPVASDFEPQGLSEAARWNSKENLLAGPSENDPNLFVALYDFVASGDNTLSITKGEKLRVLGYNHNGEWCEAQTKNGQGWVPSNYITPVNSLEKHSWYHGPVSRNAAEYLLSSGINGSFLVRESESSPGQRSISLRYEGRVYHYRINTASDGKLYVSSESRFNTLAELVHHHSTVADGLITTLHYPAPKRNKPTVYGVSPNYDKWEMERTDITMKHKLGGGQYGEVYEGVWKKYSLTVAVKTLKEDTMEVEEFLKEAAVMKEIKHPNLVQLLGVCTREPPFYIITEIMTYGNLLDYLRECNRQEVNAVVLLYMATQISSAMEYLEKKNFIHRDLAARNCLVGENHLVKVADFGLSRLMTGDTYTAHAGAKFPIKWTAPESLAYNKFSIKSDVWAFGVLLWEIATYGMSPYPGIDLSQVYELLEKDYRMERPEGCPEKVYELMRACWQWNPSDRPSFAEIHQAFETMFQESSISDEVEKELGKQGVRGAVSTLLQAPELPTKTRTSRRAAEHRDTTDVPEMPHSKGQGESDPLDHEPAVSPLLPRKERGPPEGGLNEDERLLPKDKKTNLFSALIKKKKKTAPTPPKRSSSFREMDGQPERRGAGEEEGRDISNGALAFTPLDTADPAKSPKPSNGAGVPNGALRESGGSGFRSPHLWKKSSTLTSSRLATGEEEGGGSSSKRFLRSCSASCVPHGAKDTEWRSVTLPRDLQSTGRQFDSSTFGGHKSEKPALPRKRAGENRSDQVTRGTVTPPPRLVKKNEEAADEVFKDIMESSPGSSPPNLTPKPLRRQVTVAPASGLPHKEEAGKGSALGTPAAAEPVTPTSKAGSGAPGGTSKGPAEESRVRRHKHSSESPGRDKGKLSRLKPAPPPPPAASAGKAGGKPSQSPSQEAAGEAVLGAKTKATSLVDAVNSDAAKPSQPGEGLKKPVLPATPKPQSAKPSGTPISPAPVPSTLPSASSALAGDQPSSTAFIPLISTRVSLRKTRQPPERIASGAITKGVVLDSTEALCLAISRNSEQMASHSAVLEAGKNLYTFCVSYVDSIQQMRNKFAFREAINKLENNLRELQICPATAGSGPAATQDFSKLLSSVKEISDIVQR
Excerpt: (§1) We assessed the selectivity of members of this scaffold using the KINOMEscan methodology across a near comprehensive panel of 442 kinases [[18,27]].

panel of 442 kinases [2] = biological target: T2, panel of 442 kinases (Homo sapiens, UniProt Q15759)
T2 construct: purchased KINOMEscan
T2 sequence (Q15759 whole entry): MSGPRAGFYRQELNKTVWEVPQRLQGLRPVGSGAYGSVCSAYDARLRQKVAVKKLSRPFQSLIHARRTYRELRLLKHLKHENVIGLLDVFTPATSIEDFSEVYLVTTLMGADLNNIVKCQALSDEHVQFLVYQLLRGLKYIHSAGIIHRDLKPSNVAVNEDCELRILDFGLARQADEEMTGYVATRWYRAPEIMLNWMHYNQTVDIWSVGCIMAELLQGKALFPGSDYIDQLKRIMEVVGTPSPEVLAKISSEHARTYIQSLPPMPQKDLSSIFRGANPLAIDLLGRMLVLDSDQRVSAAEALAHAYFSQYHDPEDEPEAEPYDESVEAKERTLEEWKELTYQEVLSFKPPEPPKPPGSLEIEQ
Excerpt: as §1

panel of 442 kinases [3] = biological target: T3, panel of 442 kinases (Homo sapiens, UniProt P14616)
T3 construct: purchased KINOMEscan
T3 sequence (P14616 27-1297): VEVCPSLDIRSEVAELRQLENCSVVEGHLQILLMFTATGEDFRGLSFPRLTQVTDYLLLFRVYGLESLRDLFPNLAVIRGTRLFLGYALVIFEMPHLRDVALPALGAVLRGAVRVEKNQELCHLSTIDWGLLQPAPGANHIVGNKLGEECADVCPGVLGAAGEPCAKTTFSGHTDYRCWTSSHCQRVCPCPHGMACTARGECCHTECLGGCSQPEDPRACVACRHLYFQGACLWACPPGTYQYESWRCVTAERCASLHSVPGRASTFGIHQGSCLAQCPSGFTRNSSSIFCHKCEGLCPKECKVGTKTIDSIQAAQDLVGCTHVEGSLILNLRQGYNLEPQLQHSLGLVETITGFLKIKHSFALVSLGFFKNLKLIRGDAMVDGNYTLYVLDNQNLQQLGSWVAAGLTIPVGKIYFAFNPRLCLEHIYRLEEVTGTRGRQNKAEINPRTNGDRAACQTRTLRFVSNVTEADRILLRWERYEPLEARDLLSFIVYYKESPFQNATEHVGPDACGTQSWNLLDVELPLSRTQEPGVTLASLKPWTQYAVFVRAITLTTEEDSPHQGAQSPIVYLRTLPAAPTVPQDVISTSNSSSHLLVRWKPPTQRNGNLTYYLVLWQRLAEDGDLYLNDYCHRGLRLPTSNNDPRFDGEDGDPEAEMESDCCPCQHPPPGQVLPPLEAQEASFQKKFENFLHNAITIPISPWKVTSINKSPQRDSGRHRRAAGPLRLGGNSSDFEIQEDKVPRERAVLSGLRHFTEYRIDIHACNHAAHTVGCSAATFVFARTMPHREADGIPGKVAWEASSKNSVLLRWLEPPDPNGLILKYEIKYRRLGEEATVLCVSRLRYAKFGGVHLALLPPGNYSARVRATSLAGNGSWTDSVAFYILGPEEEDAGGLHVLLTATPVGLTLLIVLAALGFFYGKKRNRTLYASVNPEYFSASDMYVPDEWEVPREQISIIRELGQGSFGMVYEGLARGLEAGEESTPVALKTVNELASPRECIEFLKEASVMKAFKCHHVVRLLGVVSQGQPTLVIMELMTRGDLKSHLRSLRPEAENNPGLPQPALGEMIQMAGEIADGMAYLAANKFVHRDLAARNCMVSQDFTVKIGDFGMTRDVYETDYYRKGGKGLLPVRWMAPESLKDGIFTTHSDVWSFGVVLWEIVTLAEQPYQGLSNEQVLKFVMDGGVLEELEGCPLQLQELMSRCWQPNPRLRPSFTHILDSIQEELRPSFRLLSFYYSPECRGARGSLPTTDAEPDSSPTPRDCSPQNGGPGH
Excerpt: as §1

panel of 442 kinases [4] = biological target: T4, panel of 442 kinases (Homo sapiens, UniProt P42336, Q546K)
T4 construct: purchased KINOMEscan
T4 sequence (P42336 whole entry Q546K): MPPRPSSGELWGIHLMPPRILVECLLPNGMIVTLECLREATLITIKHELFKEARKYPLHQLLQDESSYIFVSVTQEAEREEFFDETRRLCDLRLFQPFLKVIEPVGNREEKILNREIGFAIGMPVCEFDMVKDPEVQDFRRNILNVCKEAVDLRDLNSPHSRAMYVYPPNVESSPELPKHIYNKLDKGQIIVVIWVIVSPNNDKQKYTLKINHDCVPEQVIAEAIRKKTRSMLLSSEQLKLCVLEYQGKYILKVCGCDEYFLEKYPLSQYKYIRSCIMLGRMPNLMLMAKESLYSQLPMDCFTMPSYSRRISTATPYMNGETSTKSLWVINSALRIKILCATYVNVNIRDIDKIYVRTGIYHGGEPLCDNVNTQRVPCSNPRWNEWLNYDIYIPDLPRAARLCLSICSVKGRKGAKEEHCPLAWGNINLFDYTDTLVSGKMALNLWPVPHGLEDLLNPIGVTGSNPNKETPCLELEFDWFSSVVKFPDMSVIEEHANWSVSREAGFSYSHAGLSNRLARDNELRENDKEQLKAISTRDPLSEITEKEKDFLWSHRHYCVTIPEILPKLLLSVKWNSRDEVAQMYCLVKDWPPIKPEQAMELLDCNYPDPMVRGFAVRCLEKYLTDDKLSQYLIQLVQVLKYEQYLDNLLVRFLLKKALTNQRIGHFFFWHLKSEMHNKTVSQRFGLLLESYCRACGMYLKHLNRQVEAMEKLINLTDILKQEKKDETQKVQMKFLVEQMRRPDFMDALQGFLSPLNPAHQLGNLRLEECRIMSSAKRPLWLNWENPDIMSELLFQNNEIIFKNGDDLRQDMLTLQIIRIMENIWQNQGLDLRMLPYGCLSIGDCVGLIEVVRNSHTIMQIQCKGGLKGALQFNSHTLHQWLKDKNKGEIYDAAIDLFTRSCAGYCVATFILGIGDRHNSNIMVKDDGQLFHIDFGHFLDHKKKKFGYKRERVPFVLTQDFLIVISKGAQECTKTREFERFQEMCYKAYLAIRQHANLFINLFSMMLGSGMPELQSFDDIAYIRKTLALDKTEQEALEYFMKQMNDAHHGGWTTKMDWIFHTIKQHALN
Excerpt: as §1

For `COc1cc(C(=O)N2CCC(N3CCN(C)CC3)CC2)ccc1Nc1ncc2c(n1)N(C)c1ccccc1C(=O)N2C` [15 (LRRK2-IN-1)], the “KINOMEscan: ABL1(F317I)-nonphosphorylated” value (panel of 442 kinases [1]) was 15, the “KINOMEscan: ABL1(F317I)-phosphorylated” value (panel of 442 kinases [1]) was 17 and the “KINOMEscan: p38-beta” value (panel of 442 kinases [2]) was 60. The “KINOMEscan: INSRR” value (panel of 442 kinases [3]) was 97 and the “KINOMEscan: PIK3CA(Q546K)” value (panel of 442 kinases [4]) was 91.

For `COc1cc(C(=O)N2CCC(N3CCN(C)CC3)CC2)ccc1Nc1ncc2c(n1)N1CCc3cccc(c31)C(=O)N2C` [Compound 24], the “KINOMEscan: ABL1(F317I)-nonphosphorylated” value (panel of 442 kinases [1]) was 17, the “KINOMEscan: ABL1(F317I)-phosphorylated” value (panel of 442 kinases [1]) was 24 and the “KINOMEscan: p38-beta” value (panel of 442 kinases [2]) was 56. The “KINOMEscan: PIK3CA(Q546K)” value (panel of 442 kinases [4]) was 98.

In the case of `COc1cc(C(=O)N2CCC(N3CCN(C)CC3)CC2)ccc1Nc1ncc2c(n1)N(C1CCCC1)c1ccccc1C(=O)N2C` [Compound 25, 11-cyclopentyl-2-((2-methoxy-4-(4-(4-methylpiperazin-1-yl)piperidine-1-carbonyl)phenyl)amino)-5-methyl-5H-benzo[e]pyrimido[5,4-b][1,4]diazepin-6(11H)-one], the “KINOMEscan: ABL1(F317I)-nonphosphorylated” value (panel of 442 kinases [1]) is reported as 26, the “KINOMEscan: ABL1(F317I)-phosphorylated” value (panel of 442 kinases [1]) is reported as 29 and the “KINOMEscan: p38-beta” value (panel of 442 kinases [2]) is reported as 56. The “KINOMEscan: INSRR” value (panel of 442 kinases [3]) was 94 and the “KINOMEscan: PIK3CA(Q546K)” value (panel of 442 kinases [4]) was 100.

In the case of `CCOc1cc(C(=O)N2CCC(N3CCN(C)CC3)CC2)ccc1Nc1ncc2c(n1)N(C1CCCC1)c1ccccc1C(=O)N2C` [Compound 26], the “KINOMEscan: ABL1(F317I)-nonphosphorylated” value (panel of 442 kinases [1]) is reported as 51, the “KINOMEscan: ABL1(F317I)-phosphorylated” value (panel of 442 kinases [1]) is reported as 64 and the “KINOMEscan: p38-beta” value (panel of 442 kinases [2]) is reported as 81. The “KINOMEscan: INSRR” value (panel of 442 kinases [3]) was 100 and the “KINOMEscan: PIK3CA(Q546K)” value (panel of 442 kinases [4]) was 99.
